Reference: the NIST ThermoML archive (doi:10.1021/je900596d)
Numbers after ± are expanded uncertainties.

Details: 357.01 K, Liquid, Vibrating tube method

Compound: FC(F)=C(F)C(F)(F)F [hexafluoropropene]
- mass density (3815.9 kPa): 942.63 ± 1.1 kg/m3
- mass density (3841.4 kPa): 944.76 ± 1.1 kg/m3
- mass density (3866.1 kPa): 946.85 ± 1.1 kg/m3
- mass density (3891.2 kPa): 948.86 ± 1.1 kg/m3
- mass density (3916.1 kPa): 950.85 ± 1.1 kg/m3
- mass density (3941.3 kPa): 952.87 ± 1.1 kg/m3
- mass density (3966.7 kPa): 954.74 ± 1.1 kg/m3
- mass density (3992.1 kPa): 956.67 ± 1.1 kg/m3
- mass density (4032.7 kPa): 959.68 ± 1.1 kg/m3
- mass density (4052.9 kPa): 961.12 ± 1.1 kg/m3
- mass density (4073.2 kPa): 962.41 ± 1.1 kg/m3
- mass density (4094 kPa): 963.87 ± 1.1 kg/m3
- mass density (4114.8 kPa): 965.29 ± 1.1 kg/m3
- mass density (4135 kPa): 966.6 ± 1.1 kg/m3
- mass density (4155.1 kPa): 967.92 ± 1.1 kg/m3
- mass density (4175.4 kPa): 969.27 ± 1.1 kg/m3
- mass density (4195.5 kPa): 970.62 ± 1.1 kg/m3
- mass density (4215.6 kPa): 971.88 ± 1.1 kg/m3
- mass density (4258.3 kPa): 974.59 ± 1.1 kg/m3
- mass density (4279.4 kPa): 975.81 ± 1.1 kg/m3
- mass density (4299.6 kPa): 977.03 ± 1.1 kg/m3
- mass density (4320.4 kPa): 978.34 ± 1.1 kg/m3
- mass density (4340.8 kPa): 979.7 ± 1.1 kg/m3
- mass density (4361.8 kPa): 980.83 ± 1.1 kg/m3
- mass density (4383.2 kPa): 982.1 ± 1.1 kg/m3
- mass density (4404.3 kPa): 983.28 ± 1.1 kg/m3
- mass density (4445.8 kPa): 985.59 ± 1.1 kg/m3
- mass density (4467.1 kPa): 986.71 ± 1.1 kg/m3
- mass density (4488.7 kPa): 987.99 ± 1.1 kg/m3
- mass density (4929.3 kPa): 1009.65 ± 1.1 kg/m3
- mass density (4970.6 kPa): 1011.35 ± 1.1 kg/m3
- mass density (5012.8 kPa): 1013.28 ± 1.1 kg/m3
- mass density (5053.2 kPa): 1015.04 ± 1.1 kg/m3
- mass density (5094.4 kPa): 1016.71 ± 1.1 kg/m3
- mass density (5178.4 kPa): 1020.12 ± 1.1 kg/m3
- mass density (5218.9 kPa): 1021.7 ± 1.1 kg/m3
- mass density (5262 kPa): 1023.52 ± 1.1 kg/m3
- mass density (5302.8 kPa): 1025.13 ± 1.1 kg/m3
- mass density (5344.2 kPa): 1026.56 ± 1.1 kg/m3
- mass density (5426.4 kPa): 1029.68 ± 1.1 kg/m3
- mass density (5468.6 kPa): 1031.33 ± 1.1 kg/m3
- mass density (5509.4 kPa): 1032.71 ± 1.1 kg/m3
- mass density (5595.1 kPa): 1035.91 ± 1.1 kg/m3
- mass density (5636.8 kPa): 1037.33 ± 1.1 kg/m3
- mass density (5678.3 kPa): 1038.78 ± 1.1 kg/m3
- mass density (5720.2 kPa): 1040.29 ± 1.1 kg/m3
- mass density (5761.9 kPa): 1041.7 ± 1.1 kg/m3
- mass density (5802.7 kPa): 1043 ± 1.1 kg/m3
- mass density (5844 kPa): 1044.41 ± 1.1 kg/m3
- mass density (5885.2 kPa): 1045.79 ± 1.1 kg/m3
- mass density (5926.3 kPa): 1047.08 ± 1.1 kg/m3
- mass density (5966.4 kPa): 1048.43 ± 1.1 kg/m3
- mass density (6079.9 kPa): 1052.05 ± 1.1 kg/m3
- mass density (6121.3 kPa): 1053.27 ± 1.1 kg/m3
- mass density (6161.6 kPa): 1054.49 ± 1.1 kg/m3
- mass density (6202.1 kPa): 1055.73 ± 1.1 kg/m3
- mass density (6242.6 kPa): 1057.02 ± 1.1 kg/m3
- mass density (6283 kPa): 1058.17 ± 1.1 kg/m3
- mass density (6323.7 kPa): 1059.35 ± 1.1 kg/m3
- mass density (6365.4 kPa): 1060.53 ± 1.1 kg/m3
- mass density (6405.9 kPa): 1061.73 ± 1.1 kg/m3
- mass density (6446.1 kPa): 1062.93 ± 1.1 kg/m3
- mass density (6487.1 kPa): 1063.92 ± 1.1 kg/m3
- mass density (6527.7 kPa): 1065.18 ± 1.1 kg/m3
- mass density (6568.3 kPa): 1066.33 ± 1.1 kg/m3
- mass density (6649.5 kPa): 1068.55 ± 1.1 kg/m3
- mass density (6689.8 kPa): 1069.61 ± 1.1 kg/m3
- mass density (6730.6 kPa): 1070.82 ± 1.1 kg/m3
- mass density (6771.8 kPa): 1071.89 ± 1.1 kg/m3
- mass density (6812.8 kPa): 1072.89 ± 1.1 kg/m3
- mass density (6854 kPa): 1074.05 ± 1.1 kg/m3
- mass density (6894.2 kPa): 1075.07 ± 1.1 kg/m3
- mass density (6976.2 kPa): 1077.12 ± 1.1 kg/m3
- mass density (7016.9 kPa): 1078.17 ± 1.1 kg/m3
- mass density (7059.1 kPa): 1079.19 ± 1.1 kg/m3
- mass density (7099.3 kPa): 1080.34 ± 1.1 kg/m3
- mass density (7141 kPa): 1081.32 ± 1.1 kg/m3
- mass density (7182 kPa): 1082.35 ± 1.1 kg/m3
- mass density (7223.7 kPa): 1083.32 ± 1.1 kg/m3
- mass density (7265.2 kPa): 1084.37 ± 1.1 kg/m3
- mass density (7306.5 kPa): 1085.33 ± 1.1 kg/m3
- mass density (7391.5 kPa): 1087.34 ± 1.1 kg/m3
- mass density (7432.1 kPa): 1088.27 ± 1.1 kg/m3
- mass density (7472.8 kPa): 1089.26 ± 1.1 kg/m3
- mass density (7514.5 kPa): 1090.2 ± 1.1 kg/m3
- mass density (7555.9 kPa): 1091.18 ± 1.1 kg/m3
- mass density (7596.5 kPa): 1092.11 ± 1.1 kg/m3
- mass density (7637.6 kPa): 1093.07 ± 1.1 kg/m3
- mass density (7760.7 kPa): 1095.83 ± 1.1 kg/m3
- mass density (7802.6 kPa): 1096.76 ± 1.1 kg/m3
- mass density (7843.1 kPa): 1097.59 ± 1.1 kg/m3
- mass density (7885.2 kPa): 1098.49 ± 1.1 kg/m3
- mass density (7925.7 kPa): 1099.42 ± 1.1 kg/m3
- mass density (7967.5 kPa): 1100.24 ± 1.1 kg/m3
- mass density (8050.7 kPa): 1102.02 ± 1.1 kg/m3
- mass density (8094 kPa): 1102.97 ± 1.1 kg/m3
- mass density (8134 kPa): 1103.77 ± 1.1 kg/m3
- mass density (8175.6 kPa): 1104.71 ± 1.1 kg/m3
- mass density (8217.3 kPa): 1105.6 ± 1.1 kg/m3
- mass density (8258 kPa): 1106.39 ± 1.1 kg/m3
- mass density (8301 kPa): 1107.38 ± 1.1 kg/m3
- mass density (8342.7 kPa): 1108.09 ± 1.1 kg/m3
- mass density (8385.4 kPa): 1108.93 ± 1.1 kg/m3
- mass density (8428.9 kPa): 1109.88 ± 1.1 kg/m3
- mass density (8510.3 kPa): 1111.46 ± 1.1 kg/m3
- mass density (8552.8 kPa): 1112.27 ± 1.1 kg/m3
- mass density (8592.9 kPa): 1113.04 ± 1.1 kg/m3
- mass density (8634.2 kPa): 1113.83 ± 1.1 kg/m3
- mass density (8675.9 kPa): 1114.7 ± 1.1 kg/m3
- mass density (8717.3 kPa): 1115.43 ± 1.1 kg/m3
- mass density (8760 kPa): 1116.3 ± 1.1 kg/m3
- mass density (8843.1 kPa): 1117.91 ± 1.1 kg/m3
- mass density (8884.8 kPa): 1118.68 ± 1.1 kg/m3
- mass density (8926.5 kPa): 1119.39 ± 1.2 kg/m3
- mass density (8969.2 kPa): 1120.21 ± 1.1 kg/m3
- mass density (9010.2 kPa): 1120.94 ± 1.2 kg/m3
- mass density (9055 kPa): 1121.82 ± 1.2 kg/m3
- mass density (9096.9 kPa): 1122.57 ± 1.2 kg/m3
- mass density (9138.6 kPa): 1123.29 ± 1.2 kg/m3
- mass density (9223.4 kPa): 1124.87 ± 1.2 kg/m3
- mass density (9264.9 kPa): 1125.67 ± 1.2 kg/m3
- mass density (9307.3 kPa): 1126.46 ± 1.2 kg/m3
- mass density (9350.7 kPa): 1127.19 ± 1.2 kg/m3
- mass density (9393 kPa): 1127.83 ± 1.2 kg/m3
- mass density (9476.5 kPa): 1129.45 ± 1.2 kg/m3
- mass density (9518.3 kPa): 1130.09 ± 1.2 kg/m3
- mass density (9558.9 kPa): 1130.8 ± 1.2 kg/m3
- mass density (9598.9 kPa): 1131.49 ± 1.2 kg/m3
- mass density (9640.9 kPa): 1132.16 ± 1.2 kg/m3
- mass density (9683.8 kPa): 1132.95 ± 1.2 kg/m3
- mass density (9726.5 kPa): 1133.66 ± 1.2 kg/m3
- mass density (9769.9 kPa): 1134.38 ± 1.2 kg/m3
- mass density (9810.5 kPa): 1135.04 ± 1.2 kg/m3
